Reference: patent publication US10385024B2, “Compounds and methods for inhibiting NHE-mediated antiport in the treatment of disorders associated with fluid retention or salt overload and gastrointestinal tract disorders” (Ardelyx, Inc., priority 2012, dated 2019)

How the values were obtained:
[1] = molecular target: T1, human NHE-3 (Homo sapiens, UniProt P48764); assay: Cell-based assay of NHE-3 activity (human NHE3 inhibition assay); settings: OK cells with human NHE-3 gene, BCECF pH dye, 0-30 μM test compound; for IC50: read-out: Human NHE3 pIC50 (converted)
T1 construct: expressed in transfected cells; host or cells: Opossum kidney (OK) cells (ATCC), transfected by electroporation
T1 sequence (P48764 26-834): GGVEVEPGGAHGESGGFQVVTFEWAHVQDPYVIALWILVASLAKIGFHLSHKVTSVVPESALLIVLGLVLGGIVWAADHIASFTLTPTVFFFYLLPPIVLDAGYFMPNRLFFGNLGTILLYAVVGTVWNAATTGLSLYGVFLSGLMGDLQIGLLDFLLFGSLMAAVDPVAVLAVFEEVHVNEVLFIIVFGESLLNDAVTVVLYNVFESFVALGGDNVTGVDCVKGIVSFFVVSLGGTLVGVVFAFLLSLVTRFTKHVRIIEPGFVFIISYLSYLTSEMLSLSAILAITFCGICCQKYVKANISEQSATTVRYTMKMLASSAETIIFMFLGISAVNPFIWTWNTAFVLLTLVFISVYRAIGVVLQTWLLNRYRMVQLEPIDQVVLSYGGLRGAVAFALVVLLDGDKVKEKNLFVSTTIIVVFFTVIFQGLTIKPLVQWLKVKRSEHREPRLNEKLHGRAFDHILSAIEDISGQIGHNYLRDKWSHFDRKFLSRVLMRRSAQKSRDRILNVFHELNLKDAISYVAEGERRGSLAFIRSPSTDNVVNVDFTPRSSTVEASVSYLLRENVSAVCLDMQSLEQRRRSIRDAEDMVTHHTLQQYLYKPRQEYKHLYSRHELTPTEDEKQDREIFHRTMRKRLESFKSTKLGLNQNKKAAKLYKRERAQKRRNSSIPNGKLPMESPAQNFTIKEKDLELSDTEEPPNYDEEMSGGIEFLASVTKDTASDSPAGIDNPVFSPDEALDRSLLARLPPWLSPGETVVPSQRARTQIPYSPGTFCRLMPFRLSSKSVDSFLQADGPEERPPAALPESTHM
Method in brief: (§1)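 Opossum kidney cells electroporated with rat or human NHE-3, loaded with 5 μM BCECF-AM in NH4Cl-HEPES pH 7.4 for 30 min at RT, then acidified 10 min in Na+-free choline HEPES. Na+-dependent pH recovery rates from BCECF fluorescence, averaged over ≥2 replicates, gave pIC50.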

[2] = molecular target: T2, Rat NHE-3 (Rattus norvegicus, UniProt P26433); assay: Cell-based assay of NHE-3 activity (rat NHE-3 prompt inhibition); settings: OK cells with rat NHE-3 gene, compound present during pH recovery; for IC50: read-out: Rat NHE3 pIC50 (prompt) (converted)
T2 construct: expressed in transfected cells; host or cells: Opossum kidney (OK) cells (ATCC), transfected by electroporation
Method in brief: as §1

[3] = molecular target: T2, Rat NHE-3; assay: Cell-based assay of NHE-3 activity (persistent inhibition, after washout); settings: OK cells with rat NHE-3 gene, 60 min incubation, recovery initiated 40 min after compound washout; for IC50: read-out: Rat NHE3 pIC50 (persistent) (converted)
Method in brief: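 OK cells transiently expressing rat NHE-3 were exposed to 0-30 μM compound in NaCl-HEPES pH 7.4 for 60 min, then washed free of drug before NH4Cl/BCECF-AM loading and acid-loading in Na+-free choline buffer. Na+-dependent pH recovery rates (mean of ≥2 replicates) gave pIC50.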

[4] = test system: absorption of sodium from the intestinal lumen; assay: Inhibition of intestinal sodium absorption (urinary sodium and fecal form); assay type: in vivo, Sprague-Dawley rats; settings: rat; for response vs control in vivo at 3 mg/kg: 3 mg/kg oral gavage, urine 16 h post-dose, asterisks = significance vs vehicle (*P<0.05, **P<0.01, ***P<0.001), read-out: uNa (% of vehicle); for FFS: fecal form score, scale 1 (normal pellet) to 5 (liquid fecal streams), group average, 3 mg/kg oral, 16 h post-dose, vehicle = 1
Description: Urinary sodium concentration and fecal form were measured to assess the ability of selected example compounds to inhibit the absorption of sodium from the intestinal lumen. Eight-week old Sprague-Dawley rats were purchased from Charles River Laboratories (Hollister, Calif.), were housed 2 per cage, and acclimated for at least 3 days before study initiation. Animals were fed Harlan Teklad Global 2018 rodent chow (Indianapolis, Ind.) and water ad libitum throughout the study and maintained in a standard light/dark cycle of 6 AM to 6 PM. On the day of the study, between 4 PM and 5 PM, a group of rats (n=6) were dosed via oral gavage with test compound at the dosage indicated or vehicle (water) at a volume of 10 mL/kg. After dose administration animals were placed in individual metabolic cages where they were also fed the same chow in meal form and watered ad libitum. At 16 h post-dose, the urine samples were collected and fecal form was assessed by two independent observations. Fecal forms were scored according to a common scale associated with increasing fecal water to the wettest observation in the cage's collection funnel (1, normal pellet; 2, pellet adhering to sides of collection funnel due to moisture; 3, loss of normal pellet shape; 4, complete loss of shape with a blotting pattern; 5, liquid fecal streams evident). A rat's fecal form score (FFS) was determined by averaging both observational scores for all rats within a group (n=6). In every study the vehicle group average was 1. For urine samples, the volumes were determined gravimetrically and centrifuged at 3,600×g. The supernatants were diluted 100-fold in deionized Milli-Q water then filtered through a 0.2 μm GHP Pall AcroPrep filter plate (Pall Life Sciences, Ann Arbor, Mich.) prior to analysis by ion chromatography. Ten microliters of each filtered extract was injected onto a Dionex ICS-3000 ion chromatograph system (Dionex, Sunnyvale, Calif.). Cations were separated by an isocratic method using 25 mM methanesulfonic acid as the eluent on an IonPac CS12A 2 mm i.d.×250 mm, 8 μm particle size cation exchange column (Dionex). Sodium was quantified using standards prepared from a cation standard mix containing Li^+, Na^+, NH4^+, K^+, Mg^2+, and Ca^2+ (Dionex). The mean mass of sodium urinated for every group in the 16 h period was determined with the vehicle group usually urinating approximately 21 mg sodium. The urine Na (uNa) for rats in the test groups were expressed as a percentage of the vehicle mean and the means were compared to that of the vehicle group by utilizing a one-way analysis of variance coupled with a Dunnett's post hoc test.

T2 sequence (P26433 29-831): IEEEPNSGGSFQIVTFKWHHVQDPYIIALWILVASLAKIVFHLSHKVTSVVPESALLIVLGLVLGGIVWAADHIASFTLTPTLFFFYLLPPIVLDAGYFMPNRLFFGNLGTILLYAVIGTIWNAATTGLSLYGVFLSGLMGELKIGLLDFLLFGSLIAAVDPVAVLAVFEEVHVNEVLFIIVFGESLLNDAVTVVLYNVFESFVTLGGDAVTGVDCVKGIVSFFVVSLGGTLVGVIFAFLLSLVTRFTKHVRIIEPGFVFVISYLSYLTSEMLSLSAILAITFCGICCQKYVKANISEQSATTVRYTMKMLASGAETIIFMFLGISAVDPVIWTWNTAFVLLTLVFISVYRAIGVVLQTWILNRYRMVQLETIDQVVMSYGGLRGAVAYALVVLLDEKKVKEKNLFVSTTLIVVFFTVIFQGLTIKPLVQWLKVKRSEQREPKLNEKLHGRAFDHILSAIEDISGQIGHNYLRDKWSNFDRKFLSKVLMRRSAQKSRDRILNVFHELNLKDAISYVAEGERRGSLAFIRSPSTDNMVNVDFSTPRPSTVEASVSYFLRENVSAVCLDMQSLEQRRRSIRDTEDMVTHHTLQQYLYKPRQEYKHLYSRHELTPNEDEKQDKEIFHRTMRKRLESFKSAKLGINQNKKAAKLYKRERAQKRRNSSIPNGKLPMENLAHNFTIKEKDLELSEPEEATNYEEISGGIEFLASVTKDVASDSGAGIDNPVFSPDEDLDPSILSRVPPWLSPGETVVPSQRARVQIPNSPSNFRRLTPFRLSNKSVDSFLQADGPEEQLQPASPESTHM

| Compound | IC50 [1] | IC50 [2] | IC50 [3] | Human NHE3 pIC50 [1] | Rat NHE3 pIC50 (prompt) [2] | Rat NHE3 pIC50 (persistent) [3] | response vs control in vivo at 3 mg/kg [4] | FFS [4] |
| --- | --- | --- | --- | --- | --- | --- | --- | --- |
| CN1Cc2c(Cl)cc(Cl)cc2[C@H](c2cccc(S(=O)(=O)NCCOCCOCCNC(=O)CCC(CCC(=O)NCCOCCOCCNS(=O)(=O)c3cccc([C@@H]4CN(C)Cc5c(Cl)cc(Cl)cc54)c3)(CCC(=O)NCCOCCOCCNS(=O)(=O)c3cccc([C@@H]4CN(C)Cc5c(Cl)cc(Cl)cc54)c3)NC(N)=O)c2)C1 [Example 8, N1,N7-bis(2-(2-(2-(3-((S)-6,8-dichloro-2-methyl-1,2,3,4-tetrahydroisoquinolin-4-yl)phenylsulfonamido)ethoxy)ethoxy)ethyl)-4-(3-(2-(2-(2-(3-((S)-6,8-dichloro-2-methyl-1,2,3,4-tetrahydroisoquinolin-4-yl)phenylsulfonamido)ethoxy)ethoxy)ethylamino)-3-oxopropyl)-4-ureidoheptanediamide] | < 100 nM | 100 to 10000 nM | < 100 nM |  |  |  | < 35% |  |
| CN1Cc2c(Cl)cc(Cl)cc2[C@H](c2cccc(S(=O)(=O)NCCOCCOCCOCCNC(=O)CCC(N)(CCC(=O)NCCOCCOCCOCCNS(=O)(=O)c3cccc([C@@H]4CN(C)Cc5c(Cl)cc(Cl)cc54)c3)CCC(=O)NCCOCCOCCOCCNS(=O)(=O)c3cccc([C@@H]4CN(C)Cc5c(Cl)cc(Cl)cc54)c3)c2)C1 [Example 9, 4-amino-4-(1-(3-((S)-6,8-dichloro-2-methyl-1,2,3,4-tetrahydroisoquinolin-4-yl)phenylsulfonamido)-13-oxo-3,6,9-trioxa-12-azapentadecan-15-yl)-N^1,N^7-bis(2-(2-(2-(2-(3-((S)-6,8-dichloro-2-methyl-1,2,3,4-tetrahydroisoquinolin-4-yl)phenylsulfonamido)ethoxy)ethoxy)ethoxy)ethyl)heptanediamide] | < 100 nM | < 100 nM | < 100 nM |  |  |  | < 35% |  |
| CCC(=O)NC(CCC(=O)NCCOCCOCCOCCNS(=O)(=O)c1cccc([C@@H]2CN(C)Cc3c(Cl)cc(Cl)cc32)c1)(CCC(=O)NCCOCCOCCOCCNS(=O)(=O)c1cccc([C@@H]2CN(C)Cc3c(Cl)cc(Cl)cc32)c1)CCC(=O)NCCOCCOCCOCCNS(=O)(=O)c1cccc([C@@H]2CN(C)Cc3c(Cl)cc(Cl)cc32)c1 [Example 10, 4-(1-(3-((S)-6,8-dichloro-2-methyl-1,2,3,4-tetrahydroisoquinolin-4-yl)phenylsulfonamido)-13-oxo-3,6,9-trioxa-12-azapentadecan-15-yl)-N1,N7-bis(2-(2-(2-(2-(3-((S)-6,8-dichloro-2-methyl-1,2,3,4-tetrahydroisoquinolin-4-yl)phenylsulfonamido)ethoxy)ethoxy)ethoxy)ethyl)-4-propionamidoheptanediamide] | < 100 nM | < 100 nM | < 100 nM |  |  |  | 35 to 75% | 2 |
| CN1Cc2c(Cl)cc(Cl)cc2[C@H](c2cccc(S(=O)(=O)NCCOCCOCCNC(=O)CCC(CCC(=O)NCCOCCOCCNS(=O)(=O)c3cccc([C@@H]4CN(C)Cc5c(Cl)cc(Cl)cc54)c3)(CCC(=O)NCCOCCOCCNS(=O)(=O)c3cccc([C@@H]4CN(C)Cc5c(Cl)cc(Cl)cc54)c3)NC(=O)N[C@@H](CC(=O)O)C(=O)O)c2)C1 [Example 12, (S)-2-(3-(1,25-bis(3-((S)-6,8-dichloro-2-methyl-1,2,3,4-tetrahydroisoquinolin-4-yl)phenylsulfonamido)-13-(3-(2-(2-(2-(3-((S)-6,8-dichloro-2-methyl-1,2,3,4-tetrahydroisoquinolin-4-yl)phenylsulfonamido)ethoxy)ethoxy)ethylamino)-3-oxopropyl)-10,16-dioxo-3,6,20,23-tetraoxa-9,17-diazapentacosan-13-yl)ureido)succinic acid] | < 100 nM | < 100 nM | < 100 nM |  |  |  | 35 to 75% | 3 |
| CN1Cc2c(Cl)cc(Cl)cc2[C@H](c2cccc(S(=O)(=O)NCCOCCOCCNC(=O)CCC(CCC(=O)NCCOCCOCCNS(=O)(=O)c3cccc([C@@H]4CN(C)Cc5c(Cl)cc(Cl)cc54)c3)(CCC(=O)NCCOCCOCCNS(=O)(=O)c3cccc([C@@H]4CN(C)Cc5c(Cl)cc(Cl)cc54)c3)NC(=O)N(C)C)c2)C1 [Example 25] |  |  |  | B (B NHE3 pIC50 5-7) | B (B NHE3 pIC50 5-7) | C (C NHE3 pIC50 > 7) | < 35% |  |

Now from value to molecule, other results behind:

| IC50 [1] | IC50 [2] | IC50 [3] | Human NHE3 pIC50 [1] | Rat NHE3 pIC50 (prompt) [2] | Rat NHE3 pIC50 (persistent) [3] | Compound | response vs control in vivo at 3 mg/kg [4] | FFS [4] |
| --- | --- | --- | --- | --- | --- | --- | --- | --- |
|  |  |  | C (C NHE3 pIC50 > 7) | B (B NHE3 pIC50 5-7) | C (C NHE3 pIC50 > 7) | CNC(=O)NC(CCC(=O)NCCOCCOCCNS(=O)(=O)c1cccc([C@@H]2CN(C)Cc3c(Cl)cc(Cl)cc32)c1)(CCC(=O)NCCOCCOCCNS(=O)(=O)c1cccc([C@@H]2CN(C)Cc3c(Cl)cc(Cl)cc32)c1)CCC(=O)NCCOCCOCCNS(=O)(=O)c1cccc([C@@H]2CN(C)Cc3c(Cl)cc(Cl)cc32)c1 [Example 26] | < 35% |  |
|  |  |  | C (C NHE3 pIC50 > 7) | C (C NHE3 pIC50 > 7) | C (C NHE3 pIC50 > 7) | CN(CC(=O)O)CC(=O)NC(CCC(=O)NCCOCCOCCNS(=O)(=O)c1cccc([C@@H]2CN(C)Cc3c(Cl)cc(Cl)cc32)c1)(CCC(=O)NCCOCCOCCNS(=O)(=O)c1cccc([C@@H]2CN(C)Cc3c(Cl)cc(Cl)cc32)c1)CCC(=O)NCCOCCOCCNS(=O)(=O)c1cccc([C@@H]2CN(C)Cc3c(Cl)cc(Cl)cc32)c1 [Example 27] | 35 to 75% |  |
|  |  |  | C (C NHE3 pIC50 > 7) | B (B NHE3 pIC50 5-7) | C (C NHE3 pIC50 > 7) | CN1Cc2c(Cl)cc(Cl)cc2C(c2cccc(S(=O)(=O)NCCOCCOCCNC(=O)CCC(CCC(=O)NCCOCCOCCNS(=O)(=O)c3cccc(C4CN(C)Cc5c(Cl)cc(Cl)cc54)c3)(CCC(=O)NCCOCCOCCNS(=O)(=O)c3cccc(C4CN(C)Cc5c(Cl)cc(Cl)cc54)c3)NC(=O)C3CCCCC3C(=O)O)c2)C1 (stereo not shown) [Example 28] | 35 to 75% |  |
